Measurements published in patent publication US20120202209A1, “CELL IMAGING METHOD FOR VIEWING MICRORNA BIOGENESIS IN THE CELLS” (Centre National de la Recherche Scientifique - CNRS, priority 2009, published 2012).

Tested on: Microprocessor (Drosha and DGCR8) at the C19MC locus
Test: RNA FISH combined with immunofluorescence: recruitment of the Microprocessor on pri-miRNAs near the C19MC transcription site
Format: cell-based, human
Conditions: cells treated with Actinomycin; data not shown
From the text: To determine whether the Microprocessor can be visualized on the pri-miRNAs of the freshly synthesized C19MC locus, the inventors combined RNA FISH experiments with experiments for detection of proteins by immunofluorescence, according to the techniques familiar to a person skilled in the art. The inventors were thus able to detect the endogenous Drosha or DGCR8 proteins (FIG. 4). The inventors observed a co-localization of intense immunofluorescence signals for Drosha and
Recruitment depends on transcription and probably occurs via interaction with the RNAs, since there is no detection in cells treated with Actinomycin, in which C19MC-HG is not detected near the transcription site of C19MC (data not shown).

Substance: Actinomycin
- detection of C19MC-HG near the transcription site of C19MC: not detected
- detection of Microprocessor recruitment on pri-miRNAs: no detection
